The record followed here is US7179612B2, “Method for detecting a lipoprotein-acute phase protein complex and predicting an increased risk of system failure or mortality” (bioMerieux, Inc., priority 2000, dated 2007).

The target of test [1] is T1, VLDL/CRP complex (Homo sapiens, UniProt P02741).
T1 sequence (P02741 19-224): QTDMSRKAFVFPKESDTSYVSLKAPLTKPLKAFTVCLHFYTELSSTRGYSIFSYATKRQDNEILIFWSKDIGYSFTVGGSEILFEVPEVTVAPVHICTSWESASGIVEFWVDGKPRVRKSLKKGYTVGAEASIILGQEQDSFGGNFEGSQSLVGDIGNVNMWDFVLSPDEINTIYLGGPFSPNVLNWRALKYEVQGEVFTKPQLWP
Nature of the test: Inhibition of VLDL/CRP complex formation (Ca2+-dependent turbidity change). It counts as biochemical. The source says: It is known that CRP binds directly to PC and that PC competes with lipoproteins for binding to CRP.

Test [2] concerns the target T1, VLDL/CRP complex. Briefly: Calcium concentration dependence of formation of the VLDL/CRP complex. The note with it: FIG. 38; read-out: calcium concentration at which complex formation is half maximal. It counts as biochemical. As to the method: FIG. 38 is a graph depicting the calcium concentration dependence of formation of the VLDL/CRP complex. Complex formation is half maximal at 5.0 mM calcium.

The next test deals with T2, CRP (Homo sapiens, UniProt P02741).
T2 construct: from tissue; host or cells: patient plasma (calcium precipitate, ammonium sulfate fractionation, Q-Sepharose peak 3)
T2 sequence (P02741 19-224): T1 sequence (P02741 19-224)
Briefly: Direct binding of apo(B) to CRP.

`NCCCCCC(=O)O` [EACA]: at VLDL/CRP complex [1], the “inhibition of complex formation (result in words)” value (shortened to “inhibition of complex formation”) is on record as “inhibited”. On VLDL/CRP complex [1] (FIG. 40), the IC50 – broadly, the concentration needed to halve the response being measured – came to 2.1 mM.

In the case of `[Ca+2]` [calcium], at VLDL/CRP complex [2], the EC50 came to 5 mM.

With `NCCOP(=O)(O)O` [phosphorylethanolamine], at VLDL/CRP complex [1], the “inhibition of complex formation” value is “inhibited”.

Turning to “apo(B): apo-lipoprotein B, the major protein component of VLDL”, in the test with CRP, the “direct binding to CRP (result in words)” value was “can bind directly to CRP”.

Consider phosphotidylcholine, for which the “inhibition of complex formation” value against VLDL/CRP complex [1] is listed as “inhibited”.

With phosphotidylethanolamine, the “inhibition of complex formation” value against VLDL/CRP complex [1] was “inhibited”.
